Data as given in patent US20080146592A1, “Method of Treating Preeclampsia Employing Metolazone” (priority 2003, published 2008).

Test system: “preeclamptic” rat model
Assay: "preeclamptic" rat model (pregnant rats, saline drinking water plus weekly DOCA)
Format: in vivo, Sprague-Dawley rats
Experimental: Metolazone is a diuretic with unique properties. At low doses, it reduces blood pressure in our “preeclamptic” rat model. Female Sprague-Dawley rats were mated and the “preeclamptic” syndrome was induced by replacing their drinking water with saline and injecting them with DOCA at weekly intervals. When hypertension had occurred (3-5 days of gestation), the animals were randomly divided into two groups: 1) Group I (PE+M), n=7, was given metolazone in a daily dose of 0.04 mg/kg body weight daily for 12-14 day by gavage and 2) Group II (PE) n=5, was simply given the vehicle (saline).

[1] = rat model of preeclampsia, metolazone treatment

- Weight gain versus vehicle group (PE+M versus PE rats): similar
- Volume contraction (rat model of preeclampsia, non-diuretic dose): without causing volume contraction
Structure (SMILES): Cc1ccccc1N1C(=O)c2cc(S(N)(=O)=O)c(Cl)cc2NC1C (stereo not shown) [Metolazone, metolazone]
- Urinary sodium excretion after M (PE+M rats, 0.04 mg/kg daily by gavage, 16.2+/−6 mM/24 h prior to M administration, p>0.05): 15.3 mM/24 h
- Growth retardation (animals affected) (PE+M rats, seen in four of the five vehicle PE animals): none
- Blood pressure in the PE+M animals after treatment (mean) (metolazone 0.04 mg/kg body weight daily for 12-14 day by gavage, before treatment 119+/−3 mm Hg, vehicle PE rats 121+/−7 mm Hg, p<0.01): 100+/−16 mm/Hg
- Effect on intrauterine growth restriction [1]: beneficial effect
- Influence on pup number and development [1]: positive influence
